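1) Cells in 96-well plates. 2) Compound, 48 h, 5 concentrations. 3) Linear interpolation between surrounding doses. 4) Unreached endpoint = highest concentration. GI50 is the concentration that inhibits growth by half. TGI denotes the concentration required for complete inhibition of growth.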
How the values were obtained:
Assay in all cases: inhibition of tumour cell growth, NCI panel, 48 h
MCF7 breast = test system: MCF7 breast
HCT-15 colon = test system: HCT-15 colon
U251 CNS = test system: U251 CNS
OVCAR-5 ovarian = test system: OVCAR-5 ovarian
SR leukemia = test system: SR leukemia
SF-295 CNS = test system: SF-295 CNS
LOX IMVI melanoma = test system: LOX IMVI melanoma
SK-MEL-5 melanoma = test system: SK-MEL-5 melanoma
MDA-MB-231 breast = test system: MDA-MB-231 breast
ACHN renal = test system: ACHN renal
UO-31 renal = test system: UO-31 renal
SN12C renal = test system: SN12C renal
SK-MEL-2 melanoma = test system: SK-MEL-2 melanoma
CAKI-1 renal = test system: CAKI-1 renal
NCI-H460 lung = test system: NCI-H460 lung
IGROV1 ovarian = test system: IGROV1 ovarian
SF-539 CNS = test system: SF-539 CNS
HL-60(TB) leukemia = test system: HL-60(TB) leukemia
SF-268 CNS = test system: SF-268 CNS
UACC-257 melanoma = test system: UACC-257 melanoma
RPMI-8226 leukemia = test system: RPMI-8226 leukemia
HS 578T breast = test system: HS 578T breast
HT29 colon = test system: HT29 colon
CCRF-CEM leukemia = test system: CCRF-CEM leukemia
A549 NSCLC = test system: A549 NSCLC
786-0 renal = test system: 786-0 renal
NCI-H23 lung = test system: NCI-H23 lung
TK-10 renal = test system: TK-10 renal
M14 melanoma = test system: M14 melanoma
A498 renal = test system: A498 renal
RXF 393 renal = test system: RXF 393 renal
PC-3 prostate = test system: PC-3 prostate
DU-145 prostate = test system: DU-145 prostate
K-562 leukemia = test system: K-562 leukemia
SNB-75 CNS = test system: SNB-75 CNS
SK-MEL-28 melanoma = test system: SK-MEL-28 melanoma
HCC-2998 colon = test system: HCC-2998 colon
NCI/ADR-RES ovarian = test system: NCI/ADR-RES ovarian
OVCAR-8 ovarian = test system: OVCAR-8 ovarian
KM12 colon = test system: KM12 colon
BT-549 breast = test system: BT-549 breast
MDA-MB-435 = test system: MDA-MB-435
SW-620 colon = test system: SW-620 colon
SNB-19 CNS = test system: SNB-19 CNS
MOLT-4 leukemia = test system: MOLT-4 leukemia
EKVX NSCLC = test system: EKVX NSCLC
MALME-3M melanoma = test system: MALME-3M melanoma
OVCAR-3 ovarian = test system: OVCAR-3 ovarian
T-47D breast = test system: T-47D breast
NCI-H522 lung = test system: NCI-H522 lung
HCT-116 colon = test system: HCT-116 colon
HOP-92 NSCLC = test system: HOP-92 NSCLC
HOP-62 NSCLC = test system: HOP-62 NSCLC
UACC-62 melanoma = test system: UACC-62 melanoma
OVCAR-4 ovarian = test system: OVCAR-4 ovarian

With Cn1ccnc1C(=O)/C=C/c1ccc(C(=O)Nc2nc3ccccc3[nH]2)cc1 the GI50 (MCF7 breast) was 0.9 µM, the TGI (MCF7 breast) was > 25 µM and the GI50 (HCT-15 colon) was 0.864 µM. The TGI (HCT-15 colon) was > 25 µM, the GI50 (U251 CNS) was 0.916 µM and the TGI (U251 CNS) was > 25 µM. For the same molecule, the GI50 (OVCAR-5 ovarian) was 5.6 µM, the TGI (OVCAR-5 ovarian) was > 25 µM and the GI50 (SR leukemia) was 0.956 µM. The TGI (SR leukemia) was > 25 µM, the GI50 (SF-295 CNS) was > 25 µM and the TGI (SF-295 CNS) was > 25 µM. The GI50 (LOX IMVI melanoma) was 2.38 µM, the TGI (LOX IMVI melanoma) was > 25 µM and the GI50 (SK-MEL-5 melanoma) was 18.4 µM. The TGI (SK-MEL-5 melanoma) was > 25 µM, the GI50 (MDA-MB-231 breast) was 3.05 µM and the TGI (MDA-MB-231 breast) was 13.1 µM. For the same molecule, the GI50 (ACHN renal) was 11 µM, the TGI (ACHN renal) was > 25 µM and the GI50 (UO-31 renal) was 2.07 µM. The TGI (UO-31 renal) was > 25 µM, the GI50 (SN12C renal) was 9.93 µM and the TGI (SN12C renal) was > 25 µM. The GI50 (SK-MEL-2 melanoma) was > 25 µM, the TGI (SK-MEL-2 melanoma) was > 25 µM and the GI50 (CAKI-1 renal) was 1.63 µM. The TGI (CAKI-1 renal) was > 25 µM, the GI50 (NCI-H460 lung) was 1.6 µM and the TGI (NCI-H460 lung) was > 25 µM. For the same molecule, the GI50 (IGROV1 ovarian) was 5.67 µM, the TGI (IGROV1 ovarian) was > 25 µM and the GI50 (SF-539 CNS) was 2.7 µM. The TGI (SF-539 CNS) was 18 µM, the GI50 (HL-60(TB) leukemia) was 7.87 µM and the TGI (HL-60(TB) leukemia) was > 25 µM. The GI50 (SF-268 CNS) was 2.41 µM, the TGI (SF-268 CNS) was > 25 µM and the GI50 (UACC-257 melanoma) was > 25 µM. For the same molecule, the TGI (UACC-257 melanoma) was > 25 µM, the GI50 (RPMI-8226 leukemia) was 0.81 µM and the TGI (RPMI-8226 leukemia) was > 25 µM. The GI50 (HS 578T breast) was 5.99 µM, the TGI (HS 578T breast) was > 25 µM and the GI50 (HT29 colon) was 1.01 µM. For the same molecule, the TGI (HT29 colon) was > 25 µM, the GI50 (CCRF-CEM leukemia) was 1.28 µM and the TGI (CCRF-CEM leukemia) was > 25 µM. For the same molecule, the GI50 (A549 NSCLC) was 10.3 µM, the TGI (A549 NSCLC) was > 25 µM and the GI50 (786-0 renal) was 4.44 µM. The TGI (786-0 renal) was > 25 µM, the GI50 (NCI-H23 lung) was 3.34 µM and the TGI (NCI-H23 lung) was > 25 µM. The GI50 (TK-10 renal) was 13.3 µM, the TGI (TK-10 renal) was > 25 µM and the GI50 (M14 melanoma) was 10.3 µM. The TGI (M14 melanoma) was > 25 µM, the GI50 (A498 renal) was 4.71 µM and the TGI (A498 renal) was > 25 µM. The GI50 (RXF 393 renal) was 4.51 µM, the TGI (RXF 393 renal) was > 25 µM and the GI50 (PC-3 prostate) was 3.78 µM. The TGI (PC-3 prostate) was > 25 µM, the GI50 (DU-145 prostate) was 0.92 µM and the TGI (DU-145 prostate) was 4.63 µM. The GI50 (K-562 leukemia) was 0.829 µM, the TGI (K-562 leukemia) was > 25 µM and the GI50 (SNB-75 CNS) was 1 µM. The TGI (SNB-75 CNS) was 15.9 µM, the GI50 (SK-MEL-28 melanoma) was > 25 µM and the TGI (SK-MEL-28 melanoma) was > 25 µM. For the same molecule, the GI50 (HCC-2998 colon) was 10.3 µM, the TGI (HCC-2998 colon) was > 25 µM and the GI50 (NCI/ADR-RES ovarian) was 4.95 µM. The TGI (NCI/ADR-RES ovarian) was > 25 µM, the GI50 (OVCAR-8 ovarian) was 8.99 µM and the TGI (OVCAR-8 ovarian) was > 25 µM. For the same molecule, the GI50 (KM12 colon) was 1.12 µM, the TGI (KM12 colon) was > 25 µM and the GI50 (BT-549 breast) was 1.73 µM. For the same molecule, the TGI (BT-549 breast) was > 25 µM, the GI50 (MDA-MB-435) was 2.87 µM and the TGI (MDA-MB-435) was 19.8 µM. For the same molecule, the GI50 (SW-620 colon) was 0.808 µM, the TGI (SW-620 colon) was > 25 µM and the GI50 (SNB-19 CNS) was 9.75 µM. The TGI (SNB-19 CNS) was > 25 µM, the GI50 (MOLT-4 leukemia) was 7.26 µM and the TGI (MOLT-4 leukemia) was > 25 µM. For the same molecule, the GI50 (EKVX NSCLC) was 7.73 µM, the TGI (EKVX NSCLC) was > 25 µM and the GI50 (MALME-3M melanoma) was > 25 µM. The TGI (MALME-3M melanoma) was > 25 µM, the GI50 (OVCAR-3 ovarian) was 0.894 µM and the TGI (OVCAR-3 ovarian) was 17.2 µM. For the same molecule, the GI50 (T-47D breast) was 3.37 µM, the TGI (T-47D breast) was > 25 µM and the GI50 (NCI-H522 lung) was 8.54 µM. The TGI (NCI-H522 lung) was > 25 µM, the GI50 (HCT-116 colon) was 1.5 µM and the TGI (HCT-116 colon) was > 25 µM. For the same molecule, the GI50 (HOP-92 NSCLC) was 6.28 µM, the TGI (HOP-92 NSCLC) was > 25 µM and the GI50 (HOP-62 NSCLC) was 6.42 µM. For the same molecule, the TGI (HOP-62 NSCLC) was > 25 µM, the GI50 (UACC-62 melanoma) was 6.07 µM and the TGI (UACC-62 melanoma) was > 25 µM. For the same molecule, the GI50 (OVCAR-4 ovarian) was 1.12 µM and the TGI (OVCAR-4 ovarian) was > 25 µM.

Source: PubChem BioAssay (NCI)
